From patent US9879050B2, “Substituted urea depsipeptide analogs as activators of the CLPP endopeptidase” (priority 2013, dated 2018)
Converted amounts (≈) assume the structure as drawn.

Key:
[1] = test system: S. pyogenes ATCC 700294; test: Minimal inhibitory concentration, microbroth dilution; type: cell-based; settings: Streptococcus pyogenes, ATCC700294, read-out: Minimal Inhibitory Concentration S. pyogenes ATCC 700294
Summary of the method: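 Twofold serial dilutions in broth per CLSI M7-A7 microbroth dilution, incubated aerobically overnight at 37° C. MIC read visually as lowest concentration preventing bacterial growth.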

[2] = Cytotoxicity assay, CellTiter-Glo cell viability; type: cell-based; settings: African green monkey; Vero cells, 72 hours; read-out: Cytotoxicity IC50
Summary of the method: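 Vero cells seeded overnight at 37 °C in DMEM with 10% FBS, then exposed to serial dilutions of compound for 72 h. Viability read by CellTiter-Glo luminescence; IC50 from duplicates, given as the range of two independent experiments.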

[3] = target: T1, Sa-ClpP (Staphylococcus aureus, UniProt Q2G036); test: ClpP activation, EnzCheck Protease Assay with Bodipy-FL casein (second described method); type: biochemical, S. aureus; settings: read-out: ClpP Activation EC50 (converted)
T1 construct: made in house; host or cells: E. coli BL21 (DE3)
T1 sequence (Q2G036 whole entry): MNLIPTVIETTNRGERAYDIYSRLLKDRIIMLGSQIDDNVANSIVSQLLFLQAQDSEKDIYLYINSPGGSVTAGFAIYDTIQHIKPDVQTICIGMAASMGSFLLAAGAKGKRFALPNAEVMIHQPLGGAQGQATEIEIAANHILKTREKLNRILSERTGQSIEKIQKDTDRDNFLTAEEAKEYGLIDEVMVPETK
Summary of the method: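 Sa-ClpP (2 μM in master mix) with Bodipy-FL casein (2 μM in master mix) in Tris-HCl pH 8.0, 0.01% Triton X-100, compounds in 2% DMSO, triplicate. Fluorescence (ex 485/em 520 nm) followed 30 min; degradation slopes normalized to ADEP4 and DMSO controls, EC50 and % activation by four-parameter fit.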

[4] = target: T1, Sa-ClpP; test: ADEP displacement fluorescence polarization assay; type: binding, S. aureus; settings: 1 μM Sa-ClpP, 50 nM FP probe ADEP 2591; read-out: ADEP Displacement IC50
Summary of the method: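 Displacement of TAMRA-labelled ADEP 2591 probe (50 nM) from 1 μM Sa-ClpP, pre-equilibrated 1 h in Tris·HCl pH 8.0 with 2% DMSO, then 120 min at room temperature with compound, triplicate. Polarization (mP) read ex 530/em 579 nm, normalised to 20 μM ADEP 2378 and DMSO controls; four-parameter fit.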

Row | Structure (SMILES) | MIC [1] | IC50 at 72 h [2] | EC50 [3] | IC50 [4]
1 | Cc1ccc(NC(=O)N[C@@H](Cc2ccccc2)C(=O)N[C@H]2COC(=O)[C@@H]3C[C@@H](C)CN3C(=O)[C@H](C)NC(=O)[C@@H]3CCCCN3C(=O)[C@@H]3CCCN3C2=O)cc1 [Compound 23, (S)—N-((2R,6S,8aS,14aS,20S,23aS)-2,6-Dimethyl-5,8,14,19,23-Pentaoxooctadecahydro-1H,5H,14H,19H-Pyrido[2,1-I]Dipyrrolo[2,1-C:2′,1′-L][1]Oxa[4,7,10,13]Tetraazacyclohexadecin-20-Yl)-3-Phenyl-2-(3-(P-Tolyl)Ureido)Propanamide] | < 0.2 µM | 74 ± 7.7 µM | 0.5 µM | 7.1 ± 0.3 µM
2 | Cc1ccc(NC(=O)N[C@@H](Cc2cc(F)cc(F)c2)C(=O)N[C@H]2COC(=O)[C@@H]3C[C@@H](C)CN3C(=O)[C@H](C)NC(=O)[C@@H]3CCCCN3C(=O)[C@@H]3CCCN3C2=O)cc1 [Compound 24, (S)-3-(3,5-Difluorophenyl)-N-((2R,6S,8aS,14aS,20S,23aS)-2,6-Dimethyl-5,8,14,19,23-Pentaoxooctadecahydro-1H,5H,14H,19H-Pyrido[2,1-I]Dipyrrolo[2,1-C:2′,1′-L][1]Oxa[4,7,10,13]Tetraazacyclohexadecin-20-Yl)-2-(3-(P-Tolyl)Ureido)Propanamide] | 0.5 µM (≈ 0.397 µg/mL) | 93.8 ± 4.8 µM | 0.4 µM | 8.6 ± 0.5 µM
